Among the data in PubChem BioAssay AID624376 (Broad Institute, 2012) are activity change, negative = inhibition and AC50 values, retold here.

A word on the AC50: it is the concentration at which the activity in the assay is half-maximal.

Results filed as inconclusive are left out. The source made the active and inactive calls. No rule for the calls is given here.

System in the first assay: not listed separately
In words: inhibitors of EBV LMP1 NF-kappaB signaling – cell-based, luciferase reporter, luminescence, dry powder, set 2, dose response (AID 624376). Conditions: LMP1-induced NF-kappaB luciferase reporter cells, luminescence; at 35 µM (top of the series).
As to `C[C@@H]1CN([C@H](C)CO)C(=O)c2c(c3ccccc3n2C)-c2ccccc2CO[C@H]1CN(C)C(=O)Nc1ccc(F)cc1`, the activity change, negative = inhibition is -0.608% (inactive). The same measure, in the same setting: next, `C[C@@H](NC(=O)C[C@H]1C[C@@H]2c3cc(NC(=O)c4cccnc4)ccc3O[C@@H]2[C@@H](CO)O1)c1ccccc1`: 6.76% (inactive); `Cc1noc(C)c1S(=O)(=O)Nc1ccc2c(c1)C(=O)N([C@H](C)CO)C[C@@H](C)[C@H](CN(C)Cc1ccc(C(F)(F)F)cc1)OCCCC[C@@H](C)O2`: -6% (inactive). Regarding `Cc1noc(C)c1S(=O)(=O)Nc1ccc2c(c1)C(=O)N([C@@H](C)CO)C[C@H](C)[C@H](CN(C)Cc1ccc(C(F)(F)F)cc1)OCCCC[C@H](C)O2`, the activity change, negative = inhibition is -10.2% (inactive). Same read-out and setting: the same measure for `C[C@@H](NC(=O)C[C@@H]1C=C[C@H](NC(=O)Cc2ccccn2)[C@H](CO)O1)c1ccccc1`: 1.6% (inactive); for `COc1cccc(S(=O)(=O)N(C)C[C@@H]2Oc3cc(C4=CCCCC4)ccc3S(=O)(=O)N([C@@H](C)CO)C[C@H]2C)c1`: 4.81% (inactive).

As for `C[C@H]1CN([C@@H](C)CO)C(=O)Cc2cc(NC(=O)Cc3ccccc3)ccc2O[C@H]1CN(C)Cc1ccc(C(F)(F)F)cc1`, the activity change, negative = inhibition was 18.5% (inactive). Same read-out and setting: next, `Cc1noc(C)c1S(=O)(=O)Nc1ccc2c(c1)C(=O)N([C@H](C)CO)C[C@@H](C)[C@@H](CN(C)Cc1ccc(C(F)(F)F)cc1)OCCCC[C@@H](C)O2`: -6.08% (inactive).

As for `C[C@H]1CN([C@@H](C)CO)C(=O)Cc2cc(NC(=O)Cc3ccccc3)ccc2O[C@@H]1CN(C)Cc1ccc(C(F)(F)F)cc1`, the activity change, negative = inhibition was -3.24% (inactive).

Take `C[C@@H](NC(=O)C[C@H]1C=C[C@H](NC(=O)Cc2ccccn2)[C@@H](CO)O1)c1ccccc1`: the activity change, negative = inhibition is 2.05% (inactive).

On to `C[C@@H]1CN([C@@H](C)CO)C(=O)Cc2cc(NC(=O)Cc3ccccc3)ccc2O[C@@H]1CN(C)Cc1ccc(C(F)(F)F)cc1`, for which the activity change, negative = inhibition was 5.83% (inactive). Still for that read-out and setting: the same measure for `C[C@@H]1CN([C@H](C)CO)C(=O)c2c(c3ccccc3n2C)-c2ccccc2CO[C@@H]1CN(C)C(=O)Nc1ccc(F)cc1`: 3.49% (inactive); for `C[C@H](NC(=O)C[C@H]1C=C[C@H](NC(=O)Cc2ccccn2)[C@H](CO)O1)c1ccccc1`: 3.9% (inactive). Same read-out and setting: the same measure for `COC(=O)C[C@H]1C[C@H]2c3cc(NC(=O)CN(C)C)ccc3O[C@H]2[C@H](CO)O1`: -9.49% (inactive). Same read-out and setting: the same measure for `O=C(C[C@@H]1C[C@@H]2c3cc(NS(=O)(=O)c4ccc(F)cc4)ccc3O[C@@H]2[C@H](CO)O1)NC1CCCCC1`: 7.3% (inactive); for `COc1ccccc1CNC(=O)C[C@H]1C[C@@H]2c3cc(NC(=O)CN(C)C)ccc3O[C@@H]2[C@@H](CO)O1`: -6.3% (inactive); for `COc1cccc(S(=O)(=O)N(C)C[C@H]2Oc3cc(C4=CCCCC4)ccc3S(=O)(=O)N([C@H](C)CO)C[C@H]2C)c1`: -4.73% (inactive).

On to `C[C@@H](NC(=O)C[C@@H]1C=C[C@@H](NC(=O)Cc2ccccn2)[C@@H](CO)O1)c1ccccc1`, for which the activity change, negative = inhibition was -0.171% (inactive). For `Cc1noc(C)c1S(=O)(=O)Nc1ccc2c(c1)C(=O)N([C@@H](C)CO)C[C@@H](C)[C@@H](CN(C)Cc1ccc(C(F)(F)F)cc1)OCCCC[C@H](C)O2`, the activity change, negative = inhibition is 13% (inactive). With `COC(=O)C[C@@H]1C[C@@H]2c3cc(NC(=O)CN(C)C)ccc3O[C@@H]2[C@@H](CO)O1`, the activity change, negative = inhibition was -4.49% (inactive). The same measure, in the same setting: the same measure for `C[C@H](NC(=O)C[C@@H]1C=C[C@@H](NC(=O)Cc2ccccn2)[C@H](CO)O1)c1ccccc1`: 4.21% (inactive); for `Cc1noc(C)c1S(=O)(=O)Nc1ccc2c(c1)C(=O)N([C@H](C)CO)C[C@H](C)[C@@H](CN(C)Cc1ccc(C(F)(F)F)cc1)OCCCC[C@@H](C)O2`: -11.7% (inactive).

A further assay deals with LMP1-induced NF-kappaB luciferase reporter cells, luminescence. The description is as above.
Details: not given
Turning to `C[C@H](CO)N1C[C@H](C)[C@H](CN(C)C(=O)NC2CCCCC2)Oc2cc(/C=C/c3ccccc3)ccc2S1(=O)=O`, the AC50 was 31 µM. For `O=C(C[C@@H]1C[C@H]2c3cc(NS(=O)(=O)c4ccc(F)cc4)ccc3O[C@H]2[C@@H](CO)O1)NCc1ccc(Oc2ccccc2)cc1`, the AC50 is 15.3 µM. Take `COc1ccccc1C#Cc1ccc([C@H]2[C@H](C#N)N(C(=O)C3CC3)[C@H]2CO)cc1`: the half-maximal activity concentration (AC50) is 30.5 µM.

With `O=C(C[C@H]1CC[C@@H]2[C@H](COC[C@H](O)CN2Cc2ccc(Oc3ccccc3)cc2)O1)N1CCc2ccccc2C1`, the concentration at half-maximal activity (AC50) is 34.5 µM. As to `CC(C)NC(=O)N1Cc2cc(C(=O)NC3Cc4ccccc4C3)nc(-c3cccc(-c4cccnc4)c3)c2[C@@H]1CCO`, the AC50 is 22 µM. With `COc1cccc(C#Cc2ccc([C@@H]3[C@H](C#N)N(C(=O)c4ccccn4)[C@H]3CO)cc2)c1`, the AC50 was 29.5 µM. On the same count and under the same terms, the same measure for `O=C(C[C@H]1C[C@H]2c3cc(NS(=O)(=O)c4ccc(F)cc4)ccc3O[C@H]2[C@H](CO)O1)NCc1ccc(Oc2ccccc2)cc1`: 10 µM; for `N#C[C@H]1N[C@H](CO)[C@H]1c1ccc(C#Cc2ccccc2F)cc1`: under 0.26 µM; for `O=C(C[C@@H]1CC[C@@H]2[C@H](COC[C@H](O)CN2Cc2ccc3c(c2)OCO3)O1)Nc1ccc(-c2ccccc2)cc1`: 7.97 µM. For `CN1C(=O)c2cc(NC(=O)c3ccc(C(F)(F)F)cc3)ccc2OC[C@@H]2O[C@@H](CC(=O)NC3Cc4ccccc4C3)CC[C@H]21`, the AC50 is 24.5 µM. As to `CC(C)(C)[S@@](=O)N1Cc2cc(C(=O)NCc3ccccc3F)nc(-c3cccc(-c4cccnc4)c3)c2[C@H]1CCO`, the AC50 is 35.6 µM. Take `COc1ccccc1C#Cc1ccc2c(c1)O[C@H](CN(C)Cc1cccnc1)[C@@H](C)CN([C@@H](C)CO)S2(=O)=O`: the AC50 is 13.9 µM. On the same count and under the same terms, next, `O=C(C[C@H]1C[C@@H]2c3cc(NS(=O)(=O)c4ccc(F)cc4)ccc3O[C@@H]2[C@@H](CO)O1)NCc1ccc(Oc2ccccc2)cc1`: 13.5 µM; `O=C(C[C@@H]1CC[C@@H]2[C@H](COC[C@@H](O)CN2Cc2ccc(Oc3ccccc3)cc2)O1)N1CCc2ccccc2C1`: 16.4 µM. The same measure, in the same setting: next, `O=C(Nc1ccc(C(F)(F)F)cc1)Nc1ccc2c(c1)[C@H]1C[C@@H](CC(=O)N3CCc4ccccc4C3)O[C@@H](CO)[C@H]1O2`: 27.9 µM; `Cc1cc(C(=O)Nc2ccc3c(c2)C(=O)N(C)[C@@H]2CC[C@@H](CC(=O)NCc4ccc(-c5ccccc5)cc4)O[C@H]2CO3)no1`: 25.9 µM; `C[C@@H]1CN([C@H](C)CO)S(=O)(=O)c2ccc(/C=C/c3ccccc3)cc2O[C@H]1CN(C)C(=O)NC1CCCCC1`: 25.3 µM. On the same count and under the same terms, next, `CC(C)NC(=O)N1Cc2cc(C(=O)NC3Cc4ccccc4C3)nc(-c3cccc(-c4cccnc4)c3)c2[C@H]1CCO`: 33.6 µM. For the molecule `C[C@@H]1CN([C@@H](C)CO)S(=O)(=O)c2ccc(C#Cc3ccncc3)cc2O[C@H]1CN(C)C(=O)Nc1ccc2c(c1)OCO2`, the AC50 is 31.6 µM.

Turning to `N#C[C@@H]1[C@H](c2ccc(C#Cc3ccccc3F)cc2)[C@@H](CO)N1C(=O)c1cccnc1`, the AC50 was 1.02 µM. On the same count and under the same terms, next, `Cc1cc(C(=O)Nc2ccc3c(c2)C(=O)N(C)[C@@H]2CC[C@H](CC(=O)NCc4ccc(-c5ccccc5)cc4)O[C@H]2CO3)no1`: 1.6 µM. With `Cc1cc(C(=O)Nc2ccc3c(c2)C(=O)N(C)[C@H]2CC[C@H](CC(=O)NCc4ccc(-c5ccccc5)cc4)O[C@H]2CO3)no1`, the AC50 was 14.7 µM. For the molecule `CC(C)(C)[S@](=O)N1Cc2cc(C(=O)NCC(F)(F)F)nc(-c3cccc(-c4cccc(F)c4)c3)c2[C@@H]1CCO`, the AC50 was 11.9 µM. In the case of `O=C(C[C@@H]1C[C@@H]2c3cc(NS(=O)(=O)c4ccc(F)cc4)ccc3O[C@@H]2[C@@H](CO)O1)NCc1ccc(Oc2ccccc2)cc1`, the AC50 was 8.07 µM.

As for `CN1C(=O)c2cc(NC(=O)Cc3cccs3)ccc2OC[C@@H]2O[C@H](CC(=O)NCc3ccc(-c4ccccc4)cc3)CC[C@H]21`, the AC50 was 33 µM. Same read-out and setting: the same measure for `CCCNC(=O)c1cc2c(c(-c3cccc(-c4cccc(F)c4)c3)n1)[C@H](CCO)N([S@@](=O)C(C)(C)C)C2`: 22.7 µM; for `CN(C)c1ccc2c(c1)[C@@H]1C[C@@H](CC(=O)NCc3ccc(Oc4ccccc4)cc3)O[C@H](CO)[C@@H]1O2`: 21.6 µM; for `Cc1cc(C(=O)Nc2ccc3c(c2)C(=O)N(C)[C@@H]2CC[C@H](CC(=O)NCc4ccc(-c5ccccc5)cc4)O[C@@H]2CO3)no1`: 9.74 µM. Same read-out and setting: next, `COc1cccc(C#Cc2ccc([C@@H]3[C@@H](C#N)N(C(=O)c4ccccn4)[C@@H]3CO)cc2)c1`: 19.2 µM; `COc1ccccc1C#Cc1cnc2c(c1)C(=O)N([C@@H](C)CO)C[C@H](C)[C@@H](CN(C)C(=O)c1ccc3c(c1)OCO3)O2`: 25.9 µM; `C[C@H]1CN([C@@H](C)CO)S(=O)(=O)c2ccc(C#Cc3ccncc3)cc2O[C@H]1CN(C)C(=O)Nc1ccc2c(c1)OCO2`: 19.7 µM. On the same count and under the same terms, the same measure for `CN(C)c1ccc2c(c1)[C@@H]1C[C@H](CC(=O)NCc3ccc(Oc4ccccc4)cc3)O[C@@H](CO)[C@@H]1O2`: 9.81 µM; for `O=C(Nc1ccc(C(F)(F)F)cc1)Nc1ccc2c(c1)[C@H]1C[C@H](CC(=O)N3CCc4ccccc4C3)O[C@H](CO)[C@H]1O2`: 24.2 µM; for `N#C[C@H]1[C@H](c2ccc(C#Cc3ccccc3F)cc2)[C@@H](CO)N1C(=O)c1cccnc1`: 15 µM. Regarding `O=C(C[C@H]1C[C@@H]2c3cc(NC(=O)c4ccc5c(c4)OCO5)ccc3O[C@@H]2[C@@H](CO)O1)NCc1ccc(Oc2ccccc2)cc1`, the half-maximal activity concentration (AC50) is 24.5 µM. Still for that read-out and setting: the same measure for `O=C(C[C@H]1C[C@H]2c3cc(NC(=O)c4ccc5c(c4)OCO5)ccc3O[C@H]2[C@H](CO)O1)NCc1ccc(Oc2ccccc2)cc1`: 18.7 µM; for `N#C[C@H]1[C@@H](c2ccc(-c3cccnc3)cc2)[C@@H](CO)N1C(=O)Nc1ccc(F)cc1`: 13.9 µM. Regarding `N#C[C@H]1[C@H](c2ccc(C#Cc3ccccc3F)cc2)[C@H](CO)N1C(=O)c1cccnc1`, the AC50 is 12.6 µM.
